# Test system: HCV 1b_Huh-Luc/Neo-ET cell line persistently expressing a bicistronic genotype 1b replicon in Huh 7 cells
# Assay: HCV replicon assay (luciferase readout, 72 h)
# Type: cell-based, HCV genotype 1b
# Conditions: Hepatitis C virus, Huh-7, 72 h, read-out: Inhibition of HCV genotype 1b
# Procedure, shortened: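 Huh 7 cells carrying a bicistronic genotype 1b luciferase/neo replicon received compound in triplicate the day after plating. After 72 h, replicon levels were read as Bright-Glo luciferase activity, expressed as % of control; EC50 was fitted with a four-parameter logistic and determined several times.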
row,Compound,EC50
1,COC(=O)N[C@H](C(=O)N1CCC[C@H]1c1nc2ccc3cc(C#Cc4ccc(-c5cnc([C@@H]6CCCN6C(=O)[C@@H](NC(=O)OC)C6CCOCC6)[nH]5)cc4F)ccc3c2[nH]1)C(C)C [Compound 1099],< 1 nM
2,CC(C)[C@@H](NC(=O)OC(C)(C)C)C(=O)N1CCC[C@H]1C(=O)Nc1ccc(C#Cc2cnc([C@@H]3CCCN3C(=O)[C@H](NC(=O)OC(C)(C)C)C(C)C)[nH]2)cc1 [Compound 114],10 to 999 nM
3,[2H]C([2H])([2H])C([2H])(C([2H])([2H])[2H])[C@]([2H])(NC(=O)OC)C(=O)N1CCC[C@H]1c1nc2ccc(C#Cc3ccc4c(c3)CCc3nc([C@@H]5CCCN5C(=O)[C@@H](NC(=O)OC)C(C)C)[nH]c3-4)cc2[nH]1 [Compound 1106],< 1 nM
4,COC(=O)N[C@@H](C(=O)N1CCC[C@H]1c1ncc(-c2ccc(C#Cc3ccc(-c4cnc([C@@H]5CCCN5C(=O)[C@H](NC(=O)C5(O)CC5)c5ccccc5)[nH]4)cc3)cc2)[nH]1)c1ccccc1 [Compound 277],< 1 nM
5,COC(=O)N1CCC[C@H]1C(=O)N1CCC[C@H]1c1ncc(-c2ccc(C#Cc3ccc4nc([C@@H]5CCCN5C(=O)[C@@H]5CCCN5C(=O)OC)[nH]c4c3)cc2)[nH]1 [Compound 1063],10 to 999 nM
6,COC(=O)N[C@H](C(=O)N1CCC[C@H]1c1ncc(-c2cccc3c(C#Cc4ccc5nc([C@@H]6CCCN6C(=O)[C@@H](NC(=O)OC)C(C)C)[nH]c5c4)cccc23)[nH]1)C(C)C [Compound 1112],< 1 nM
7,O=C(N[C@@H](C(=O)N1CCC[C@H]1c1ncc(C#Cc2ccc(-c3ccc(-c4cnc([C@@H]5CCCN5C(=O)[C@H](NC(=O)N5CCOCC5)c5ccccc5)[nH]4)cc3)cc2)[nH]1)c1ccccc1)N1CCOCC1 [Compound 761],< 1 nM
8,COC(=O)N[C@H](C(=O)N1CCC[C@H]1c1ncc(-c2ccc(C#Cc3ccc(-c4cnc([C@@H]5CCCN5C(=O)[C@H](NC(=O)OC)c5ccccc5)[nH]4)cc3)cc2)[nH]1)C(C)C [Compound 1002],< 1 nM
9,O=C(N[C@@H](C(=O)N1CCC[C@H]1c1ncc(-c2ccc(C#Cc3ccc(-c4cnc([C@@H]5CCCN5C(=O)[C@H](NC(=O)N5CCCCC5)c5ccccc5)[nH]4)cc3)cc2)[nH]1)c1ccccc1)N1CCCCC1 [Compound 250],< 1 nM
10,COC(=O)N[C@@H](C(=O)N1CCC[C@H]1c1ncc(-c2ccc(C#Cc3ccc(-c4cnc([C@@H]5CCCN5C(=O)[C@H](NC(=O)[C@H]5CCCN5C)c5ccccc5)[nH]4)cc3)cc2)[nH]1)c1ccccc1 [Compound 204],< 1 nM
11,COC(=O)N[C@H](C(=O)N1CCC[C@H]1c1ncc(-c2ccc(C#Cc3ccc(-c4cnc([C@H](C)NC(=O)[C@@H](C(C)C)N(C)C)[nH]4)cc3)cc2)[nH]1)C(C)C [Compound 982],10 to 999 nM
12,CC(C)[C@@H](NC(=O)OC(C)(C)C)C(=O)N1CCC[C@H]1C(=O)NCc1ccc(C#Cc2cnc([C@@H]3CCCN3C(=O)[C@H](NC(=O)OC(C)(C)C)C(C)C)[nH]2)cc1 [Compound 120],10 to 999 nM

# Same assay, conditions: Hepatitis C virus, Huh-7, read-out: Inhibition of HCV genotype 1b
row,Compound,EC50
1,COC[C@H](NC(=O)OC)C(=O)N1CCC[C@H]1c1ncc(-c2ccc(C#Cc3ccc4nc([C@@H]5CCCN5C(=O)[C@@H](NC(=O)OC)C(C)C)[nH]c4c3)cc2)[nH]1 [Compound 1236],< 1 nM
2,COC(=O)N[C@H](C(=O)N1CCN(C(=O)OC)C[C@H]1c1ncc(-c2ccc(C#Cc3ccc4nc([C@@H]5CCCN5C(=O)[C@@H](NC(=O)OC)C(C)C)[nH]c4c3)cc2)[nH]1)C(C)C [Compound 1228],< 1 nM
3,COC(=O)N[C@H](C(=O)N1CCC[C@H]1c1ncc(-c2ccc(C#Cc3ccc4nc([C@@H]5CCCN5C(=O)[C@@H](NC(=O)OC)C5CCCOC5)[nH]c4c3)cc2)[nH]1)C(C)C (some centres unmarked) [Compound 1244],< 1 nM
4,COC(=O)N[C@H](C(=O)N1CCC[C@H]1c1nc2ccc(C#Cc3ccc4c(ccc5nc([C@@H]6CCCN6C(=O)[C@@H](NC(=O)OC)C6CCOCC6)[nH]c54)c3)cc2[nH]1)C(C)C [Compound 1287],< 1 nM
5,COC(=O)N[C@H](C(=O)N1CCC[C@H]1c1nc2ccc(C#Cc3ccc4c(ccc5nc([C@@H]6CCCN6C(=O)[C@@H](NC(=O)OC)[C@@H](C)OC)[nH]c54)c3)cc2[nH]1)C(C)C [Compound 1286],< 1 nM

# Reference: patent publication US20130296311A1, “INHIBITORS OF HCV NS5A” (PRESIDIO PHARMACEUTICALS, INC., priority 2010, published 2013)
